The supplement of paper PMC10307832

Columns and labels:
Experiment in all cases: relative viability (nuclei count vs DMSO), 5 days (fraction); higher = more cells survive
[1] = compound: CC1(C)CCC(CN2CCN(c3ccc(C(=O)NS(=O)(=O)c4ccc(NCC5CCOCC5)c([N+](=O)[O-])c4)c(Oc4cnc5[nH]ccc5c4)c3)CC2)=C(c2ccc(Cl)cc2)C1 [Venetoclax] + CC(C)C[C@H](NC(=O)[C@H](Cc1ccccc1)NC(=O)c1cnccn1)B(O)O [Bortezomib] (partner 0.002 µM)
In short: (§1)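 Nuclei were stained with Hoechst during a one-step fixation (final 0.05% Triton X-100, 1% formaldehyde, 1 ug/ml Hoechst) carried out 5 days after dosing, then counted on 4× images. The cells, lung cancer lines in 1536-well plates, had been dosed by pin tool the day after seeding with one drug alone or a fixed anchor-drug dose plus five library-drug doses (not always all listed) in √10 steps. Relative viability is the nuclei count in treated wells divided by that in vehicle wells, and each value is the median of duplicate plates.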

[2] = compound: CC1(C)CCC(CN2CCN(c3ccc(C(=O)NS(=O)(=O)c4ccc(NCC5CCOCC5)c([N+](=O)[O-])c4)c(Oc4cnc5[nH]ccc5c4)c3)CC2)=C(c2ccc(Cl)cc2)C1 [Venetoclax] + Cc1nc(Nc2ncc(C(=O)Nc3c(C)cccc3Cl)s2)cc(N2CCN(CCO)CC2)n1 [Dasatinib] (partner 0.075 µM)
In short: as §1

[3] = compound: Cn1cnc2c(F)c(Nc3ccc(Br)cc3Cl)c(C(=O)NOCCO)cc21 [Selumetinib] + CC(=O)Nc1cccc(-n2c(=O)n(C3CC3)c(=O)c3c(Nc4ccc(I)cc4F)n(C)c(=O)c(C)c32)c1 [Trametinib] (partner 0.02 µM)
In short: as §1

[4] = compound: Cn1cnc2c(F)c(Nc3ccc(Br)cc3Cl)c(C(=O)NOCCO)cc21 [Selumetinib] + COc1cc2c(Oc3ccc(NC(=O)C4(C(=O)Nc5ccc(F)cc5)CC4)cc3F)ccnc2cc1OCCCN1CCOCC1 [Foretinib] (partner 0.25 µM)
In short: as §1

Cell Line: NCI-H1666
- relative viability ([1]; first compound 0.01 µM): 0.773
- relative viability ([1]; first compound 0.03162 µM): 0.931
- relative viability ([1]; first compound 0.1 µM): 0.676
- relative viability ([1]; first compound 0.3162 µM): 0.706
- relative viability ([1]; first compound 1 µM): 0.593
- relative viability ([2]; first compound 0.01 µM): 0.816
- relative viability ([2]; first compound 0.03162 µM): 0.821
- relative viability ([2]; first compound 0.1 µM): 0.838
- relative viability ([2]; first compound 0.3162 µM): 0.708
- relative viability ([2]; first compound 1 µM): 0.766
- relative viability ([3]; first compound 0.02 µM): 0.867
- relative viability ([3]; first compound 0.06325 µM): 0.854
- relative viability ([3]; first compound 0.2 µM): 0.807
- relative viability ([3]; first compound 0.6325 µM): 0.845
- relative viability ([4]; first compound 0.02 µM): 0.827
- relative viability ([4]; first compound 0.06325 µM): 0.839
- relative viability ([4]; first compound 0.2 µM): 0.791
- relative viability ([4]; first compound 0.6325 µM): 0.734

Cell Line: NCI-H2085
- relative viability ([1]; first compound 0.01 µM): 0.976
- relative viability ([1]; first compound 0.03162 µM): 1.14
- relative viability ([1]; first compound 0.1 µM): 1.07
- relative viability ([1]; first compound 0.3162 µM): 0.923
- relative viability ([1]; first compound 1 µM): 0.946
- relative viability ([2]; first compound 0.01 µM): 0.273
- relative viability ([2]; first compound 0.03162 µM): 0.238
- relative viability ([2]; first compound 0.1 µM): 0.282
- relative viability ([2]; first compound 0.3162 µM): 0.243
- relative viability ([2]; first compound 1 µM): 0.22
- relative viability ([3]; first compound 0.02 µM): 0.545
- relative viability ([3]; first compound 0.06325 µM): 0.62
- relative viability ([3]; first compound 0.2 µM): 0.398
- relative viability ([3]; first compound 0.6325 µM): 0.513
- relative viability ([4]; first compound 0.02 µM): 0.728
- relative viability ([4]; first compound 0.06325 µM): 0.829
- relative viability ([4]; first compound 0.2 µM): 0.536
- relative viability ([4]; first compound 0.6325 µM): 0.567

Cell Line: LXF-289
- relative viability ([1]; first compound 0.01 µM): 1.03
- relative viability ([1]; first compound 0.03162 µM): 0.966
- relative viability ([1]; first compound 0.1 µM): 1
- relative viability ([1]; first compound 0.3162 µM): 1.01
- relative viability ([1]; first compound 1 µM): 0.87
- relative viability ([2]; first compound 0.01 µM): 0.137
- relative viability ([2]; first compound 0.03162 µM): 0.262
- relative viability ([2]; first compound 0.1 µM): 0.242
- relative viability ([2]; first compound 0.3162 µM): 0.253
- relative viability ([2]; first compound 1 µM): 0.166
- relative viability ([3]; first compound 0.02 µM): 0.717
- relative viability ([3]; first compound 0.06325 µM): 0.616
- relative viability ([3]; first compound 0.2 µM): 0.673
- relative viability ([3]; first compound 0.6325 µM): 0.701
- relative viability ([4]; first compound 0.02 µM): 0.939
- relative viability ([4]; first compound 0.06325 µM): 0.867
- relative viability ([4]; first compound 0.2 µM): 0.738
- relative viability ([4]; first compound 0.6325 µM): 0.737

Cell Line: NCI-H322M
- relative viability ([1]; first compound 0.01 µM): 1.37
- relative viability ([1]; first compound 0.03162 µM): 1.18
- relative viability ([1]; first compound 0.1 µM): 1.27
- relative viability ([1]; first compound 0.3162 µM): 1.2
- relative viability ([1]; first compound 1 µM): 1.2
- relative viability ([2]; first compound 0.01 µM): 0.291
- relative viability ([2]; first compound 0.03162 µM): 0.239
- relative viability ([2]; first compound 0.1 µM): 0.237
- relative viability ([2]; first compound 0.3162 µM): 0.246
- relative viability ([2]; first compound 1 µM): 0.24
- relative viability ([3]; first compound 0.02 µM): 0.458
- relative viability ([3]; first compound 0.06325 µM): 0.508
- relative viability ([3]; first compound 0.2 µM): 0.496
- relative viability ([3]; first compound 0.6325 µM): 0.512
- relative viability ([4]; first compound 0.02 µM): 0.853
- relative viability ([4]; first compound 0.06325 µM): 0.782
- relative viability ([4]; first compound 0.2 µM): 0.704
- relative viability ([4]; first compound 0.6325 µM): 0.757

Cell Line: LU99A
- relative viability ([1]; first compound 0.01 µM): 1.13
- relative viability ([1]; first compound 0.03162 µM): 1.32
- relative viability ([1]; first compound 0.1 µM): 0.925
- relative viability ([1]; first compound 0.3162 µM): 1.19
- relative viability ([1]; first compound 1 µM): 1.23
- relative viability ([2]; first compound 0.01 µM): 0.625
- relative viability ([2]; first compound 0.03162 µM): 0.632
- relative viability ([2]; first compound 0.1 µM): 0.659
- relative viability ([2]; first compound 0.3162 µM): 0.516
- relative viability ([2]; first compound 1 µM): 0.583
- relative viability ([3]; first compound 0.02 µM): 0.505
- relative viability ([3]; first compound 0.06325 µM): 0.649
- relative viability ([3]; first compound 0.2 µM): 0.512
- relative viability ([3]; first compound 0.6325 µM): 0.481
- relative viability ([4]; first compound 0.02 µM): 0.898
- relative viability ([4]; first compound 0.06325 µM): 0.729
- relative viability ([4]; first compound 0.2 µM): 0.83
- relative viability ([4]; first compound 0.6325 µM): 0.699

Cell Line: NCI-H650
- relative viability ([1]; first compound 0.01 µM): 0.671
- relative viability ([1]; first compound 0.03162 µM): 0.792
- relative viability ([1]; first compound 0.3162 µM): 0.873
- relative viability ([1]; first compound 1 µM): 0.817
- relative viability ([2]; first compound 0.01 µM): 0.488
- relative viability ([2]; first compound 0.03162 µM): 0.539
- relative viability ([2]; first compound 0.1 µM): 0.453
- relative viability ([2]; first compound 0.3162 µM): 0.484
- relative viability ([2]; first compound 1 µM): 0.432
- relative viability ([3]; first compound 0.02 µM): 0.963
- relative viability ([3]; first compound 0.06325 µM): 1.03
- relative viability ([3]; first compound 0.2 µM): 0.979
- relative viability ([3]; first compound 0.6325 µM): 0.866
- relative viability ([4]; first compound 0.02 µM): 1.07
- relative viability ([4]; first compound 0.06325 µM): 1.18
- relative viability ([4]; first compound 0.2 µM): 1.21
- relative viability ([4]; first compound 0.6325 µM): 1.17

Cell Line: PC-14
- relative viability ([1]; first compound 0.01 µM): 0.765
- relative viability ([1]; first compound 0.03162 µM): 0.939
- relative viability ([1]; first compound 0.1 µM): 0.843
- relative viability ([1]; first compound 0.3162 µM): 0.839
- relative viability ([1]; first compound 1 µM): 0.789
- relative viability ([2]; first compound 0.01 µM): 0.337
- relative viability ([2]; first compound 0.03162 µM): 0.272
- relative viability ([2]; first compound 0.1 µM): 0.284
- relative viability ([2]; first compound 0.3162 µM): 0.259
- relative viability ([2]; first compound 1 µM): 0.253
- relative viability ([3]; first compound 0.02 µM): 0.847
- relative viability ([3]; first compound 0.06325 µM): 0.74
- relative viability ([3]; first compound 0.2 µM): 0.732
- relative viability ([3]; first compound 0.6325 µM): 0.604
- relative viability ([4]; first compound 0.02 µM): 0.97
- relative viability ([4]; first compound 0.06325 µM): 0.886
- relative viability ([4]; first compound 0.2 µM): 0.819
- relative viability ([4]; first compound 0.6325 µM): 0.881

Cell Line: HARA
- relative viability ([1]; first compound 0.01 µM): 1.14
- relative viability ([1]; first compound 0.03162 µM): 1.13
- relative viability ([1]; first compound 0.1 µM): 0.937
- relative viability ([1]; first compound 0.3162 µM): 1.12
- relative viability ([1]; first compound 1 µM): 1.1
- relative viability ([2]; first compound 0.01 µM): 0.422
- relative viability ([2]; first compound 0.03162 µM): 0.258
- relative viability ([2]; first compound 0.1 µM): 0.228
- relative viability ([2]; first compound 0.3162 µM): 0.249
- relative viability ([2]; first compound 1 µM): 0.216
- relative viability ([3]; first compound 0.02 µM): 0.531
- relative viability ([3]; first compound 0.06325 µM): 0.596
- relative viability ([3]; first compound 0.2 µM): 0.787
- relative viability ([3]; first compound 0.6325 µM): 0.448
- relative viability ([4]; first compound 0.02 µM): 0.905
- relative viability ([4]; first compound 0.06325 µM): 0.726
- relative viability ([4]; first compound 0.2 µM): 0.71
- relative viability ([4]; first compound 0.6325 µM): 0.592

Cell Line: NCI-H1650
- relative viability ([1]; first compound 0.01 µM): 0.217
- relative viability ([1]; first compound 0.03162 µM): 0.218
- relative viability ([1]; first compound 0.3162 µM): 0.205
- relative viability ([1]; first compound 1 µM): 0.184
- relative viability ([2]; first compound 0.01 µM): 0.362
- relative viability ([2]; first compound 0.03162 µM): 0.352
- relative viability ([2]; first compound 0.1 µM): 0.29
- relative viability ([2]; first compound 0.3162 µM): 0.324
- relative viability ([2]; first compound 1 µM): 0.305
- relative viability ([3]; first compound 0.02 µM): 0.522
- relative viability ([3]; first compound 0.06325 µM): 0.458
- relative viability ([3]; first compound 0.2 µM): 0.531
- relative viability ([3]; first compound 0.6325 µM): 0.577
- relative viability ([4]; first compound 0.02 µM): 0.992
- relative viability ([4]; first compound 0.06325 µM): 0.888
- relative viability ([4]; first compound 0.2 µM): 0.842
- relative viability ([4]; first compound 0.6325 µM): 0.928
